Experimental data published in patent US20060161001A1, “Substituted heterocyclic compounds and methods of use” (Amgen Inc., priority 2004, published 2006).

The molecules below were run on LPS induced TNF release (assay: THP1 cell assay (LPS induced TNF release)). Details: Homo sapiens, THP-1; THP1 cells, LPS induced TNF-α secretion, 3 h at 37° C.
Type: cell-based
Description: Lipopolysaccharide-Activated THP1 Cell TNF Production Assay
THP1 cells are resuspended in fresh THP1 media (RPMI 1640, 10% heat-inactivated FBS, 1XPGS, 1XNEAA, plus 30 μM OME) at a concentration of 1E6/mL. One hundred microliters of cells per well are plated in a polystyrene 96-well tissue culture. One microgram per mL of bacterial LPS is prepared in THP1 media and is transferred to the wells. Test compounds are dissolved in 100% DMSO and are serially diluted 3-fold in a polypropylene 96-well microtiter plate (drug plate). HI control and LO control wells contain only DMSO. One microliter of test compound from the drug plate followed by 10 μL of LPS are transferred to the cell plate. The treated cells are induced to synthesize and secrete TNF-α at 37° C. for 3 h. Forty microliters of conditioned media are transferred to a 96-well polypropylene plate containing 110 μL of ECL buffer (50 mM Tris-HCl pH 8.0, 100 mM NaCl, 0.05% Tween 20, 0.05% NaN3 and 1% FBS) supplemented with 0.44 nM MAB610 monoclonal Ab (R&D Systems), 0.34 nM ruthenylated AF210NA polyclonal Ab (R&D Systems) and 44 μg/mL sheep anti-mouse M280 Dynabeads (Dynal). After a 2 h incubation at RT with shaking, the reaction is read on the ECL M8 Instrument (IGEN Inc.). A low voltage is applied to the ruthenylated TNF-α immune complexes, which in the presence of TPA (the active component in Origlo), results in a cyclical redox reaction generating light at […]. The amount of secreted TNF-α in the presence of compound compared with that in the presence of DMSO vehicle alone (HI control) is calculated using the formula: % control (POC)=(cpd−average LO)/(average HI−average LO)*100. Data (consisting of POC and inhibitor concentration in μM) is fitted to a 4-parameter equation (y=A+((B−A)/(I+((x/C)ˆD))), where A is the minimum y (POC) value, B is the maximum y (POC), C is the x (cpd concentration) at the point of inflection and D is the slope factor) using a Levenburg-Marquardt non-linear regression algorithm.

Q: `CC(=O)NCC(C)(C)Nc1nccc(N2CCCc3cnc(-c4ccccc4)cc32)n1` [Example 42, N-(2-Methyl-2-(4-(7-phenyl-3,4-dihydro-1,6-naphthyridin-1(2H)-yl)pyrimidin-2-ylamino)propyl)acetamide] was tested. Which IC50 did it give?
A: ≤ 20 µM

Q: With `c1ccc(CCNc2nccc(N3CCCc4ccc(-c5ccccc5)nc43)n2)cc1` [Example 47, N-Phenethyl-4-(7-phenyl-3,4-dihydro-1,8-naphthyridin-1(2H)-yl)pyrimidin-2-amine] as the molecule, how does the IC50 read?
A: ≤ 20 µM

Q: How did the IC50 turn out when `CC(Cc1cccc(CO)c1)Nc1nccc(N2CCCc3ccc(-c4ccccc4)nc32)n1` (stereo not shown) [Example 48, (3-(2-(4-(7-Phenyl-3,4-dihydro-1,8-naphthyridin-1(2H)-yl)pyrimidin-2-yl-amino)propyl)phenyl)methanol] was run?
A: ≤ 20 µM

Q: With `FC(F)(F)c1cc(N2CCCc3ccc(-c4ccccc4)nc32)nc(NCCc2ccccc2)n1` [Example 56, N-Phenethyl-4-(7-phenyl-3,4-dihydro-1,8-naphthyridin-1(2H)-yl)-6-(trifluoromethyl)pyrimidin-2-amine] as the molecule, how does the IC50 read?
A: ≤ 20 µM

Q: How did the IC50 turn out when `NC(=O)[C@@H](Cc1ccccc1)Nc1nccc(N2CCCc3cnc(-c4ccccc4)cc32)n1` [Example 33, (R)-3-Phenyl-2-(4-(7-phenyl-3,4-dihydro-1,6-naphthyridin-1(2H)-yl)pyrimidin-2-ylamino)propanamide] was run?
A: ≤ 20 µM

Q: `C[C@@H](Cc1cccc([C@@H](C)NC(=O)OC(C)(C)C)c1)Nc1nccc(N2CCOc3cnc(-c4ccccc4)nc32)n1` [Example 99, tert-Butyl (R)-1-(3-((S)-2-(4-(2-phenyl-6,7-dihydropyrimido[5,4-b][1,4]oxazin-8-yl)pyrimidin-2-ylamino)propyl)phenyl)ethylcarbamate] was tested. Which IC50 did it give?
A: ≤ 20 µM

Q: With `OCc1cc2c(nc1-c1ccccc1)N(c1ccnc(NCCc3ccccc3)n1)CCC2` [Example 67, (8-(2-(Phenethylamino)pyrimidin-4-yl)-2-phenyl-5,6,7,8-tetrahydro-1,8-naphthyridin-3-yl)methanol] as the molecule, how does the IC50 read?
A: ≤ 20 µM

Q: How did the IC50 turn out when `O=C(C[C@@H](Cc1ccccc1)Nc1nccc(N2CCCc3cnc(-c4ccccc4)cc32)n1)N1CCOCC1` [Example 20, (R)-1-Morpholino-4-phenyl-3-(4-(7-phenyl-3,4-dihydro-1,6-naphthyridin-1(2H)-yl)pyrimidin-2-ylamino)butan-1-one] was run?
A: ≤ 20 µM

Q: How did the IC50 turn out when `CCOC(=O)c1cc2c(nc1-c1ccccc1)N(c1ccnc(NC3CCN(C(=O)OC(C)(C)C)CC3)n1)CCC2` [Example 74, Ethyl 8-(2-(1-(tert-butoxycarbonyl)piperidin-4-ylamino)pyrimidin-4-yl)-2-phenyl-5,6,7,8-tetrahydro-1,8-naphthyridine-3-carboxylate] was run?
A: ≤ 20 µM

Q: `CC(Cc1cccc(CO)c1)Nc1nccc(N2CCCc3cnc(-c4ccccc4)cc32)n1` (stereo not shown) [Example 4, (3-(2-(4-(7-Phenyl-3,4-dihydro-1,6-naphthyridin-1(2H)-yl)pyrimidin-2-ylamino)-propyl)phenyl)methanol] was tested. Which IC50 did it give?
A: ≤ 20 µM

Q: Which IC50 does the source give for `CC(=O)c1cccc(C[C@H](C)Nc2nccc(N3CCCc4cnc(-c5ccccc5)cc43)n2)c1` [Example 12, (S)-1-(3-(2-(4-(7-Phenyl-3,4-dihydro-1,6-naphthyridin-1(2H)-yl)pyrimidin-2-yl-amino)propyl)phenyl)ethanone] here?
A: ≤ 20 µM

Q: With `CC(C)NCCC(=O)N1CCC(Nc2nccc(N3CCCc4cnc(-c5ccccc5)cc43)n2)CC1` [Example 14, 3-(Isopropylamino)-1-(4(4-(7-phenyl-3,4-dihydro-1,6-naphthyridin-1(2H)-yl)pyrimidin-2-ylamino)piperdin-1-yl)propan-1-one] as the molecule, how does the IC50 read?
A: ≤ 20 µM

Q: With `O=C(C[C@@H](Cc1ccccc1)Nc1nccc(N2CCCc3cnc(-c4ccccc4)cc32)n1)NC1CC1` [Example 21, (R)-N-Cyclopropyl-4-phenyl-3-(4-(7-phenyl-3,4-dihydro-1,6-naphthyridin-1(2H)-yl)pyrimidin-2-ylamino)butanamide] as the molecule, how does the IC50 read?
A: ≤ 20 µM

Q: For `CC(=O)NC1CCC(Nc2nccc(N3CCCc4ccc(-c5ccccc5)nc43)n2)CC1` [Example 90, N-((1R,4R)-4-(4-(7-Phenyl-3,4-dihydro-1,8-naphthyridin-1(2H)-yl)pyrimidin-2-ylamino)cyclohexyl)acetamide], which IC50 is on record?
A: ≤ 20 µM

Q: How did the IC50 turn out when `CC(C)(C)CNc1nccc(N2CCCc3ccc(-c4ccccc4)nc32)n1` [Example 52, N-Neopentyl-4-(7-phenyl-3,4-dihydro-1,8-naphthyridin-1(2H)-yl)pyrimidin-2-amine] was run?
A: ≤ 20 µM

Q: `CC(C)(N)CNc1nccc(N2CCCc3ccc(-c4ccccc4)nc32)n1` [Example 53, N-(2-Amino-2-methylpropyl)-4-(7-phenyl-3,4-dihydro-1,8-naphthyridin-1(2H)-yl)-pyrimidin-2-amine] was tested. Which IC50 did it give?
A: ≤ 20 µM

Q: `Cc1cc(N2CCCc3ccc(-c4ccccc4)nc32)nc(N[C@@H](C)Cc2cccc([C@@H](C)N)c2)n1` [Example 62, N-((S)-1-(3-((R)-1-Aminoethyl)phenyl)propan-2-yl)-4-methyl-6-(7-phenyl-3,4-dihydro-1,8-naphthyridin-1(2H)-yl)pyrimidin-2-amine] was tested. Which IC50 did it give?
A: ≤ 20 µM

Q: Which IC50 does the source give for `CC(Cc1cccc(CO)c1)Nc1nc(N2CCCc3ccc(-c4ccccc4)nc32)cc(C(F)(F)F)n1` (stereo not shown) [Example 57, (3-(2-(4-(7-Phenyl-3,4-dihydro-1,8-naphthyridin-1(2H)-yl)-6-(trifluoromethyl)-pyrimidin-2-ylamino)propyl)phenyl)methanol] here?
A: ≤ 20 µM

Q: With `CC(C)NC1CCC(Nc2nccc(N3CCCc4ccc(-c5ccccc5)nc43)n2)CC1` [Example 89, (1R,4R)-N^1-Isopropyl-N^4-(4-(7-phenyl-3,4-dihydro-1,8-naphthyridin-1(2H)-yl)pyrimidin-2-yl)cyclohexane-1,4-diamine] as the molecule, how does the IC50 read?
A: ≤ 20 µM

Q: With `c1ccc(-c2ccc3c(n2)N(c2ccnc(NCCc4cccnc4)n2)CCC3)cc1` [Example 50, 4-(7-Phenyl-3,4-dihydro-1,8-naphthyridin-1(2H)-yl)-N-(2-(pyridin-3-yl)ethyl)-pyrimidin-2-amine] as the molecule, how does the IC50 read?
A: ≤ 20 µM

Q: Which IC50 does the source give for `CC(Cc1cccc(CN)c1)Nc1nccc(N2CCCc3ccc(-c4ccccc4)nc32)n1` (stereo not shown) [Example 49, N-(1-(3-(Aminomethyl)phenyl)propan-2-yl)-4-(7-phenyl-3,4-dihydro-1,8-naphthyridin-1(2H)-yl)pyrimidin-2-amine] here?
A: ≤ 20 µM

Q: How did the IC50 turn out when `c1ccc(-c2cc3c(cn2)CCCN3c2ccnc(NC3CCNCC3)n2)cc1` [Example 8, 4-(7-Phenyl-3,4-dihydro-1,6-naphthyridin-1(2H)-yl)-N-(piperidin-4-yl)pyrimidin-2-amine] was run?
A: ≤ 20 µM

Q: With `C[C@@H](Cc1cccc([C@@H](C)N)c1)Nc1nccc(N2CCCc3ccc(-c4ccccc4)nc32)n1` [Example 91, N-((S)-1-(3-((R)-1-Aminoethyl)phenyl)propan-2-yl)-4-(7-phenyl-3,4-dihydro-1,8-naphthyridin-1(2H)-yl) pyrimidin-2-amine] as the molecule, how does the IC50 read?
A: ≤ 20 µM

Q: With `c1ccc(-c2ncc3c(n2)N(c2ccnc(NC4CCNCC4)n2)CCO3)cc1` [Example 106, 4-(2-Phenyl-6,7-dihydropyrimido[5,4-b][1,4]oxazin-8-yl)-N-(piperidin-4-yl)-pyrimidin-2-amine] as the molecule, how does the IC50 read?
A: ≤ 20 µM

Q: `Cc1cc(N2CCCc3ccc(-c4ccccc4)nc32)nc(N[C@@H](C)Cc2cccc([C@@H](C)NC(=O)OC(C)(C)C)c2)n1` [Example 61, tert-Butyl (R)-1-(3-((S)-2-(4-methyl-6-(7-phenyl-3,4-dihydro-1,8-naphthyridin-1 (2H)-yl)pyrimidin-2-ylamino)propyl)phenyl)ethylcarbamate] was tested. Which IC50 did it give?
A: ≤ 20 µM
